According to patent US7935688B2, “Vitamin D-like compound” (Chugai Seiyaku Kabushiki Kaisha, priority 2005, dated 2011):

Experiments:
[1] = tested on: osteocalcin production in MG-63 cells; experiment: Osteocalcin production in MG-63 cells (Gla-type Osteocalcin EIA); assay type: cell-based, human; conditions: (EC50 value of 1,25(OH)2D3/EC50 value of each compound)×100; eight hours exposure, then four days culture
Experimental: mg-63 was obtained from Institute for Fermentation, Osaka as a human osteoblast-like cell line. MG-63 cells were maintained and cultured in a MEM medium (Minimum essential medium; pH 7.0; Invitrogen Corporation, Carlsbad, Calif., USA) containing 5% fetal bovine serum (FBS; HyClone, Logan, Utah, USA).
MG-63 cells were adjusted to a density of 4.0×10^4 cells/mL, plated in a 96-well plate at 200 μL per well, and cultured under conditions of 37° C. and 5% carbon dioxide for 24 hours.
After removing the medium, MEM containing 5% charcoal/dextran treated FBS (DCC-FBS; Hyclone, Logan, Utah, USA) was added at 180 μL/well. The test substance (1.0×10^−3 mol/L) was diluted with dimethyl sulfoxide (DMSO) to 1.0×10^−4 mol/L, 1.0×10^−5 mol/L, 1.0×10^−6 mol/L, 1.0×10^−7 mol/L and 1.0×10^−8 mol/L. 1,25(OH)2D3 was used as a positive control. Like the test substance, 1,25(OH)2D3 was diluted with DMSO. 0.02 mL of the positive control and the test substance diluted 100-fold with MEM containing 5% DCC-FCS was added to each well of the 96-well plate, so that the final drug concentration was 1.0×10^−6 mol/L to 1.0×10^−11 mol/L. Thereafter, the cells were cultured under conditions of 37° C. and 5% carbon dioxide for eight hours.
After culturing for eight hours, the medium was removed, and MEM containing 5% DCC-FBS was added at 0.2 mL per well. The cells were cultured under conditions of 37° C. and 5% carbon dioxide for four days, and the medium was recovered. The medium was stored at −80° C. until osteocalcin measurement.
The Gla-type Osteocalcin EIA kit (Takara Bio Inc., Tokyo, Japan) was used for measurement of osteocalcin. Measurement was carried out using a microplate reader (Model 3550, Bio-Rad Laboratories, Inc., Hercules, Calif., USA) at a wavelength of 450 nm, and the results were analyzed by Microplate Manager III (Bio-Rad Laboratories, Inc., ver. 1.57).
The median effective concentration (EC50) was calculated from the osteocalcin concentration. Potency of induction of each compound was calculated as a ratio of EC50 of 1,25(OH)2D3 to EC50 of the compound. The relation between diseases and induction of osteocalcin production is described in Lancet (1984 May 19), 1 (8386), 1091-3; Steroids 66, 159-170 (2001); and Journal of Steroid Biochemistry & Molecular Biology 89-90, 269-271 (2004), for example.
The osteocalcin production level in MG-63 cells (%) was calculated by the formula: (EC50 value of 1,25(OH)2D3/EC50 value of each compound)×100.

[2] = tested on: Sprague-Dawley female rats subjected to ovariectomy (OVX); experiment: Effect of increasing bone density in ovariectomized rats (dual X-ray bone densitometry); assay type: in vivo, rat; conditions: forcibly orally, five times per week, pathological control group (vehicle) = 100%
Experimental: The compound of the present invention was adjusted to each concentration using middle chain triglyceride (MCT) as a base. The adjusted solution was stored under shading at 4° C. until use.
Seven-week-old Sprague-Dawley (Crj:CD(SD)) female rats (Charles River Laboratories Japan, Inc.) were preliminarily bred for one week in an environment at a room temperature of 20 to 26° C., at a humidity of 35 to 75% and with an air change of 10 times or more per hour. The rats were allowed to freely take tap water and CE-2 (CLEA Japan, Inc.) as a feed.
After preliminary breeding, the animals were subjected to ovariectomy (OVX) and divided into groups (eight animals per group) on the day after the operation. Only MCT as a base was forcibly orally administered to the sham operation group (sham) and the pathological control group (OVX-vehicle) at a dose of 1 mL/kg (five times per week). The compound of the present invention was also forcibly orally administered at the same dose five times per week.
The animals were bred in a metabolic cage and urine was collected for 24 hours after the final administration. Blood was collected from the abdominal aorta under ether anesthesia for 24 hours after the final administration. The blood was allowed to stand at room temperature for 30 minutes and then centrifuged to provide serum. The femur and lumbar spine were collected and stored in 70% ethanol until bone density measurement.
The bone density of the femur and the second to fifth lumbar spines of the isolated lumbar spines was measured by the dual X-ray bone densitometry system DCS-600-EX (ALOKA). The distal femur bone density was measured for three […] regions out of 10 regions of the femur equally divided in length. The bone density in each site was described based on the bone density of the pathological control group (vehicle group) in each experiment as 100%.
The effects of the compounds of the present invention on the lumbar spine bone density are shown in Table 2 as an example of the obtained results.

For `CCC(CC)(c1ccc(/C=C/C(O)(C(F)(F)F)C(F)(F)F)c(C)c1)c1ccc(-c2cccc(CC(=O)O)c2)c(C)c1` [Example 71, (4′-{1-ethyl-1-[3-methyl-4-((E)-4,4,4-trifluoro-3-hydroxy-3-trifluoromethyl-1-butenyl)-phenyl]-propyl}-2′-methyl-biphenyl-3-yl)-acetic Acid], the “Osteocalcin production level in MG-63 cells (%)” value [1] was 746%, the “Lumbar spine bone density (%)” value ([2]; 0.025 μg/kg) was 110.58% and the “Lumbar spine bone density (%)” value ([2]; 0.05 μg/kg) was 115.09%.

`CCC(CC)(c1ccc(/C=C/C(O)(C(F)(F)F)C(F)(F)F)c(C)c1)c1ccc(-c2nc(CC(=O)O)cs2)c(C)c1` [Example 76, [2-(4-{1-ethyl-1-[3-methyl-4-((E)-4,4,4-trifluoro-3-hydroxy-3-trifluoromethyl-1-butenyl)-phenyl]-propyl}-2-methyl-phenyl)-thiazol-4-yl]-acetic Acid] was tested, and the “Osteocalcin production level in MG-63 cells (%)” value [1] was 407%, the “Lumbar spine bone density (%)” value ([2]; 0.015 μg/kg) was 110.22% and the “Lumbar spine bone density (%)” value ([2]; 0.03 μg/kg) was 111.00%.

`CCC(CC)(c1ccc(C#CC(O)(C(F)(F)F)C(F)(F)F)c(C)c1)c1ccc(-c2cncc(CC(=O)O)c2)c(C)c1` [Example 80, [5-(4-{1-ethyl-1-[3-methyl-4-(4,4,4-trifluoro-3-hydroxy-3-trifluoromethyl-1-butynyl)-phenyl]-propyl}-2-methyl-phenyl)-pyridin-3-yl]-acetic Acid] was tested, and the “Lumbar spine bone density (%)” value ([2]; 0.05 μg/kg) was 110.75% and the “Lumbar spine bone density (%)” value ([2]; 0.1 μg/kg) was 116.68%.

In the case of `CCC(O)(/C=C/c1ccc(C(CC)(CC)c2ccc(-c3ccc(CC(=O)O)cn3)c(C)c2)cc1C)CC` [Example 81, [6-(4-{1-ethyl-1-[4-((E)-3-ethyl-3-hydroxy-1-pentenyl)-3-methyl-phenyl]-propyl}-2-methyl-phenyl)-pyridin-3-yl]-acetic Acid], the “Osteocalcin production level in MG-63 cells (%)” value [1] is reported as 652%, the “Lumbar spine bone density (%)” value ([2]; 0.01 μg/kg) is reported as 115.66% and the “Lumbar spine bone density (%)” value ([2]; 0.02 μg/kg) is reported as 115.66%.

`CCC(CC)(c1ccc(/C=C/C2(O)CCCCC2)c(C)c1)c1ccc(-c2cc(Cl)ccc2CC(=O)O)c(C)c1` [Example 89, [5-chloro-4′-(1-ethyl-1-{4-[(E)-2-(1-hydroxy-cyclohexyl)-vinyl]-3-methyl-phenyl}-propyl)-2′-methyl-biphenyl-2-yl]-acetic Acid] was tested, and the “Lumbar spine bone density (%)” value ([2]; 1.25 μg/kg) was 109.24% and the “Lumbar spine bone density (%)” value ([2]; 2.5 μg/kg) was 121.37%.

`CCC(CC)(c1ccc(/C=C/C2(O)CCCCC2)c(C)c1)c1ccc(-c2ccc(CC(=O)O)c(Cl)c2)c(C)c1` [Example 90, [3-chloro-4′-(1-ethyl-1-{4-[(E)-2-(1-hydroxy-cyclohexyl)-vinyl]-3-methyl-phenyl}-propyl)-2′-methyl-biphenyl-4-yl]-acetic Acid] was tested, and the “Osteocalcin production level in MG-63 cells (%)” value [1] was 1604%.

In the case of `CCC(CC)(c1ccc(/C=C/C2(O)CCCCC2)c(C)c1)c1ccc(-c2ccc(CC(=O)O)cn2)c(C)c1` [Example 91, {6-[4-(1-ethyl-1-{4-[(E)-2-(1-hydroxy-cyclohexyl)-vinyl]-3-methyl-phenyl}-propyl)-2-methyl-phenyl]-pyridin-3-yl}-acetic Acid], the “Osteocalcin production level in MG-63 cells (%)” value [1] is reported as 1074%.

With `CCC(CC)(c1ccc(C#CC2(O)CCCC2)c(C)c1)c1ccc(-c2ccc(CC(=O)O)c(F)c2)c(C)c1` [Example 93, (4′-{1-ethyl-1-[4-(1-hydroxy-cyclopentylethynyl)-3-methyl-phenyl]-propyl}-3-fluoro-2′-methyl-biphenyl-4-yl)-acetic Acid] the “Osteocalcin production level in MG-63 cells (%)” value [1] was 487%.

With `CCC(CC)(c1ccc(C#CC2(O)CCCCC2)c(C)c1)c1ccc(-c2ccc(CC(=O)O)c(F)c2)c(C)c1` [Example 97, (4′-{1-ethyl-1-[4-(1-hydroxy-cyclohexylethynyl)-3-methyl-phenyl]-propyl}-3-fluoro-2′-methyl-biphenyl-4-yl)-acetic Acid] the “Osteocalcin production level in MG-63 cells (%)” value [1] was 533%.

For `CCC(CC)(c1ccc(OCC(O)C(C)(C)C)c(C)c1)c1ccc(-c2ccc(CC(=O)O)c(F)c2)c(C)c1` (stereo not drawn) [Example 100, (4′-{1-ethyl-1-[4-(2-hydroxy-3,3-dimethyl-butoxy)-3-methyl-phenyl]-propyl}-3-fluoro-2′-methyl-biphenyl-4-yl)-acetic Acid], the “Osteocalcin production level in MG-63 cells (%)” value [1] was 878%.

With `CCC(CC)(c1ccc(OCC(O)C(C)(C)C)c(C)c1)c1ccc(-c2ccc(CC(=O)O)cn2)c(C)c1` (stereo not drawn) [Example 101, [6-(4-{1-ethyl-1-[4-(2-hydroxy-3,3-dimethyl-butoxy)-3-methyl-phenyl]-propyl}-2-methyl-phenyl)-pyridin-3-yl]-acetic Acid] the “Osteocalcin production level in MG-63 cells (%)” value [1] was 508%.

With `CCC(CC)(c1ccc(-c2cncc(CC(=O)O)c2)cc1)c1ccc(OCC(O)C(C)(C)C)c(C)c1` (stereo not drawn) [Example 146, [5-(4-{1-ethyl-1-[4-(2-hydroxy-3,3-dimethyl-butoxy)-3-methyl-phenyl]-propyl}-phenyl)-pyridin-3-yl]-acetic Acid] the “Osteocalcin production level in MG-63 cells (%)” value [1] was 3721%.

In the case of `CCC(CC)(c1ccc(-c2cncc(CC(=O)O)c2)cc1)c1ccc(C#CC2(O)CCCCC2)c(C)c1` [Example 147, [5-(4-{1-ethyl-1-[4-(1-hydroxy-cyclohexylethynyl)-3-methyl-phenyl]-propyl}-phenyl)-pyridin-3-yl]-acetic Acid], the “Osteocalcin production level in MG-63 cells (%)” value [1] is reported as 1228%.

For `CCC(CC)(c1ccc(-c2cncc(CC(=O)O)c2)cc1)c1ccc(C#CC2(O)CCCC2)c(C)c1` [Example 148, [5-(4-{1-ethyl-1-[4-(1-hydroxy-cyclopentylethynyl)-3-methyl-phenyl]-propyl}-phenyl)-pyridin-3-yl]-acetic Acid], the “Osteocalcin production level in MG-63 cells (%)” value [1] was 1022%.

For `CCC(CC)(c1ccc(-c2cncc(CC(=O)O)c2)cc1)c1ccc(CCC2(O)CCCCC2)c(C)c1` [Example 149, {5-[4-(1-ethyl-1-{4-[2-(1-hydroxy-cyclohexyl)-ethyl]-3-methyl-phenyl}-propyl)-phenyl]-pyridin-3-yl}-acetic Acid], the “Osteocalcin production level in MG-63 cells (%)” value [1] was 1305%, the “Lumbar spine bone density (%)” value ([2]; 0.075 μg/kg) was 111.40% and the “Lumbar spine bone density (%)” value ([2]; 0.15 μg/kg) was 116.00%.

`CCC(CC)(c1ccc(-c2cncc(CC(=O)O)c2)cc1)c1ccc(CCC2(O)CCCC2)c(C)c1` [Example 150, {5-[4-(1-ethyl-1-{4-[2-(1-hydroxy-cyclopentyl)-ethyl]-3-methyl-phenyl}-propyl)-phenyl]-pyridin-3-yl}-acetic Acid] was tested, and the “Osteocalcin production level in MG-63 cells (%)” value [1] was 645%.

In the case of `CCC(CC)(c1ccc(OCC(O)CO)c(C)c1)c1ccc(OCC(O)C(C)(C)C)c(C)c1` (stereo not drawn) [LG190178, reference compound], the “Osteocalcin production level in MG-63 cells (%)” value [1] is reported as 185%.
